Data reported in paper PMC4818757, “Small molecule inhibitors of the Dishevelled‐CXXC5 interaction are new drug candidates for bone anabolic osteoporosis therapy” (EMBO Molecular Medicine, 2016).

Key:
Wnt/β‐catenin pathway = assay: TOPflash reporter assay; assay type: cell-based, murine; conditions: MC3T3E1 cells, 2 days
Protocol: Figure 3 Effect of KY‐02061 on Wnt/β‐catenin pathway, osteoblast differentiation, and ex vivo‐cultured calvaria growth • A MC3T3E1 cells were transfected with pTOPFLASH together with pCMV‐β‐gal. After 24 h, the cells were treated with DMSO, KY‐02061 in DMSO, or 5 μM PolyR‐DBM for 2 days. The luciferase activities of whole‐cell lysates were measured and normalized with β‐galactosidase activities. (n = 3) • B Primary calvaria cells were isolated from the calvariae of 4‐day‐old mice (Manton et al, 2007) and treated with DMSO or KY‐02061 in DMSO for 4 days. ALP activity levels were visualized by ALP staining. • C Primary calvaria cells were treated with DMSO or 5 μM KY‐02061 in DMSO for 14 days. […] The calvaria thicknesses were measured from the stained sections using Image Pro software (E). […] (error bars), and significance was assessed using unpaired Student's t‐test.
Figure 5 Effects of KY‐02327 on Wnt/β‐catenin pathway and osteoblast differentiation in osteoblasts • A MC3T3E1 cells were transfected with pTOPFLASH together with pCMV‐β‐gal. […] The luciferase activities of whole‐cell lysates were measured and normalized with β‐galactosidase activities. (n = 3) • B, C MC3T3E1 cells were treated with indicated concentrations of KY‐02327 for 2 days. β‐Catenin and α‐tubulin were detected by immunoblot (B) or immunofluorescence (C) analyses. […] The mRNA level of osteocalcin (OCN) was measured by qRT–PCR. […]

MC3T3E1 cells = assay: Relative ALP activity in MC3T3E1 cells; assay type: cell-based, murine; conditions: differentiation media, 10 M of each compound, 4 days
Source text: Railo et Rev: [NT] al, 2009 Fos-like antigen 1 […] et al, 2003 WNT1 inducible [NT] Railo et signaling pathway Rev: [NT] al, 2009 protein 1 (Wis p1) Activating […] transcription factor Rev: […], 4 (Atf 4) 2007 Cyclin-dependent [NT] Donovan TGFβ kinase inhibitor 1B Rev: [NT] et al, 2002 (Cdkn1b) […] membrane Rev: […], protein 1 (Emp1) 2007 8

Dvl PDZ domain = biological target: T1, Dvl PDZ domain (Homo sapiens, UniProt O14640); assay: NMR titration (1H-15N-HSQC); assay type: binding
T1 construct: plasmid DNA encoding Dvl-1247- 341 (the Dvl PDZ domain); His-tag (TEV-cleavable) (cleaved yes); made in house; host or cells: E. coli BL21 (DE3)
T1 sequence (O14640 247-341 limits assumed): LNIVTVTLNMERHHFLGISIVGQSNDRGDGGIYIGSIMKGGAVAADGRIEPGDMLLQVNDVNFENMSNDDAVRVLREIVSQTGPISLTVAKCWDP
Protocol: For NMR titration, ^1H‐^15N‐heteronuclear single‐quantum coherence spectroscopy (HSQC) was performed using various molar ratios of ^15N‐labeled Dvl PDZ domain relative to the DBM peptide, KY‐02061, or KY‐02327. For the Dvl PDZ domain and DBM titration, the molar ratios of ^15N‐labeled Dvl PDZ domain to peptide ligand were 1:5, 1:10, 1:15, 1:20, and 1:25. For the Dvl PDZ domain and KY‐02061 titration, the molar ratios were 1:10, 1:20, 1:40, 1:60, and 1:80. For the Dvl PDZ domain and KY‐02327 titration, the molar ratios were 1:0, 1:5, 1:10, and 1:20. All spectra were processed using XWINNMR (Bruker Biospin Corp., Billerica, MA) and NMRpipe/NMRDraw software (Delaglio et al, 1995). Using the Sparky program, all residues in each spectrum were completely assigned, and the chemical shift perturbations were calculated using the equation ΔδAV = ((Δδ1H)^2 + (Δδ15N/5)^2)^1/2, where ΔδAV, Δδ1H, and Δδ15N are the average, proton, and ^15N chemical shift changes, respectively. The residues showing ΔδAV > 0.05 were selected as residues participating in the interaction.
Dvl PDZ domain purification
E. coli strain BL21 (DE3) was transformed with plasmid DNA encoding Dvl-1247-341 (the Dvl PDZ domain), and the cells were grown in M9 minimal medium containing 15N isotope for 17 hours at 21°C and after then 1 mM isopropyl-1-thio-β -D-thiogalactopyranoside was treated. […]

| Compound | activation of the Wnt/β‐catenin pathway (TOPflash luciferase) (Wnt/β‐catenin pathway) | Relative ALP activity (%) (MC3T3E1 cells) | residues of Dvl PDZ domain perturbed (chemical shift change > 0.05) (Dvl PDZ domain) |
| --- | --- | --- | --- |
| CCOC(=O)c1cc2cc(O)ccc2n1CC(=O)NCCN1CCCCC1 [KY‐02327] | dose‐dependent effect | 227 | one residue in βA (I250) and three residues in αB (V318, R322, and V325) of Dvl PDZ were perturbed |
| CCOC(=O)Cn1c(C(=O)OCC)cc2cc(OS(=O)(=O)c3ccc(C)cc3)ccc21 [KY‐02061] | increased | 173 | one residue in βB (S265) and three residues in αB (L321, R322, and V325) were perturbed |
